Active and inactive are the calls of the source. The rule behind the calls is not given here.
Columns and labels:
Cirsium arvense = experiment: Phytotoxic activity against Cirsium arvense (Canada thistle) assessed as necrosis spot at 6 x 10^-3 M after 3 days by leaf puncture assay; assay type: functional, organism-based
[1] = Zootoxic activity against larvae of Artemia salina (brine shrimp) assessed as mortality at 10^-4 M; assay type: ADME, organism-based; conditions: in vivo
Escherichia coli = experiment: Antibacterial activity against Escherichia coli up to 100 ug/disk; assay type: functional, organism-based
Lactobacillus sp. = experiment: Antibacterial activity against Lactobacillus sp. at 5 ug/disk; assay type: functional, organism-based
Geotrichum candidum = experiment: Antifungal activity against Galactomyces geotrichum up to 100 ug/disk; assay type: functional, organism-based
Artemia salina = experiment: Zootoxic activity against larvae of Artemia salina (brine shrimp) assessed as mortality; assay type: ADME, organism-based; conditions: in vivo

SMILES	Activity (Cirsium arvense)	mortality at 100 µM [1]	Activity (Escherichia coli)	Activity (Lactobacillus sp.)	Activity (Geotrichum candidum)	Activity (Artemia salina)
CCN1C(=O)/C2=C3\CO[C@@](OC)([C@@H](O)CCCCC[C@]21C(C)O)[C@H]3O (some centres not stated)	inactive					
CCN1C(=O)/C2=C3\CO[C@@](OC)([C@@H](O)CCCCC[C@]21C)[C@H]3O [PHYLLOSTICTINE A]	Active	24%	inactive	Active	inactive	
CO[C@]12OC/C(=C3\C(=O)N(C)CC[C@]3(C)C(=O)CCCC[C@@H]1O)[C@@H]2O	Active					
CCN1C(=O)/C2=C3\CO[C@@](OC)([C@@H](O)CCC[C@]21C)[C@H]3O [PHYLLOSTICTINE B]	Active		inactive	Active	inactive	Non-toxic
